Laboratory results as given in patent publication US6855843B2, “Inhibitors of α4 mediated cell adhesion” (Tanabe Seiyaku Co., Ltd., priority 1998, dated 2005).

Target: T1, α4β7 (adhesion of RPMI cells to CS-1) (Homo sapiens, UniProt P13612+P26010)
T1 construct: endogenous in cells
T1 sequence (P13612 34-1032): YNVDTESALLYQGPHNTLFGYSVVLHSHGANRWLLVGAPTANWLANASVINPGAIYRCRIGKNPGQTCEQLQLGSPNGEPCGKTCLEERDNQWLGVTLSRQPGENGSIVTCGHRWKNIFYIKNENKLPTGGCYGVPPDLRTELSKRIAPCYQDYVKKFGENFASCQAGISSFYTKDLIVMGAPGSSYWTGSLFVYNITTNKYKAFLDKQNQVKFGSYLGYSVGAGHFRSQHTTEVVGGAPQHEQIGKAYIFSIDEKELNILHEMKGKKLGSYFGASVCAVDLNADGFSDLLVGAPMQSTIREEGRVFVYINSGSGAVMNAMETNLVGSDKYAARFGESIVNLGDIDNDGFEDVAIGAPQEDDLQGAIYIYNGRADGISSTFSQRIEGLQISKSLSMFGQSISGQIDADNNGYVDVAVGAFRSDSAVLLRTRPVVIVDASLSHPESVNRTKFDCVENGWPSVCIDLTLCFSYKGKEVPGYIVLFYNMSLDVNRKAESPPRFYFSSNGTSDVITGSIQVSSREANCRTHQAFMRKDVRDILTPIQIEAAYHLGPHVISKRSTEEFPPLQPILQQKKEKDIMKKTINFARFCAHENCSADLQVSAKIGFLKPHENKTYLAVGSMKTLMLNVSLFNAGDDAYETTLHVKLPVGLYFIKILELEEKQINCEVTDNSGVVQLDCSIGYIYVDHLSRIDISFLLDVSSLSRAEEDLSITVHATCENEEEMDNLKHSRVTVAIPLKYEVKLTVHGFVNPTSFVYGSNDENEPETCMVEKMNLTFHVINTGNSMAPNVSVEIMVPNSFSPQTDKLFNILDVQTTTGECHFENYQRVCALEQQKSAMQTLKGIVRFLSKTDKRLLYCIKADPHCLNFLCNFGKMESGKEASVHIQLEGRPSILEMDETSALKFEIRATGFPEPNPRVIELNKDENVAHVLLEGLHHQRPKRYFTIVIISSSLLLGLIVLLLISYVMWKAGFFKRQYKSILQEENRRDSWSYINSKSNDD
T1 sequence (P26010 20-798): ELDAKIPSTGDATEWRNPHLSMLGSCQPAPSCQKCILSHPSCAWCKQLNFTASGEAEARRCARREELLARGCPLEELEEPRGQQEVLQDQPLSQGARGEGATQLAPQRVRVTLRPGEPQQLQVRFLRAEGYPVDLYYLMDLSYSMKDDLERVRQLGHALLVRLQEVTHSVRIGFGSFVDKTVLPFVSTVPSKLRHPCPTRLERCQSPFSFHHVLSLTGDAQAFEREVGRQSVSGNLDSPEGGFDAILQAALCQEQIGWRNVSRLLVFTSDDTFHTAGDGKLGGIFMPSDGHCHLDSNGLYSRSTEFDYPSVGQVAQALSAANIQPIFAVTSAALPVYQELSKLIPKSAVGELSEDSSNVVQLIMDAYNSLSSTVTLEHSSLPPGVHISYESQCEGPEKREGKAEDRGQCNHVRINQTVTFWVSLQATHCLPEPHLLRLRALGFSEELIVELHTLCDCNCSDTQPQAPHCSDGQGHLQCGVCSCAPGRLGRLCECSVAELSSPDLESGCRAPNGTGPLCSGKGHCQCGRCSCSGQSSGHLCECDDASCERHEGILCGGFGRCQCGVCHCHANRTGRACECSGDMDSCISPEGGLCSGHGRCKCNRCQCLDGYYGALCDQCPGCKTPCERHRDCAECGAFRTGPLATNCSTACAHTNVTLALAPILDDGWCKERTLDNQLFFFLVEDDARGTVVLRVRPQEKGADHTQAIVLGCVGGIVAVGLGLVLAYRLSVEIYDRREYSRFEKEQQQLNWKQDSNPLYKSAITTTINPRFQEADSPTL
Experiment: RPMI-CS-1 cell adhesion assay
Type: cell-based
Conditions: adhesion of RPMI B-cell line (expresses α4β7) to CS-1 peptide coated microwells; read-out: RPMI-CS-1 IC50 value range
Procedure: RPMI-CS-1 Cell Adhesion Assay:
The test compounds were added in increasing concentrations to RPMI cells and then the cell-compound mixture was added to CS-1 coated microwells. The plates were incubated, washed and the percentage of attached cells were quantitated.
The CS-1 derived peptide, […], and the scrambled control peptide, […], were synthesized at Tanabe Research Laboratories, USA, Inc. on a Beckman 990 synthesizer using t-Boc methodology. […] Microtiter plates were coated with 20 μg/ml human serum albumin (HSA) for 2 hours at room temperature, washed once with PBS and derivatized with 10 μg/ml SPDP for 1 hour. […] Unbound peptide was removed from the plates by washing with PBS. To block non-reacted sites, the plates were coated with 100 μl of a 2.5 mg/ml BSA solution in PBS for one hour at 37° C. 100 μl of RPMI cells (2.5×10^6 cells/ml) in Dulbecco's Modified Eagles Medium (DMEM) plus 0.25% ovalbumin were added to peptide coated dishes and incubated for 1 hour at 37° C. […] To do this, the enzyme substrate p-nitrophenyl-N-acetyl-β-D-glucoseaminide is dissolved at 7.5 mM in 0.1 M citrate buffer pH 5 and then mixed with an equal volume of 0.5% Triton X100. 50 μl of the substrate solution was added to the plates and the plates were incubated at 37° C. for 60 minutes.
In this assay, IC50 value ranges (μM) are depicted by A, B, C and D. These ranges as follows. D>5≧C>1≧B>0.3≧A

Row | SMILES | IC50 [nM]
1 | CC(=O)Nc1ccccc1-c1ccc(C[C@H](NC(=O)c2c(Cl)cccc2Cl)C(=O)O)cc1 [Example 25] | 300 to 1000
2 | COC(=O)Nc1ccccc1-c1ccc(C[C@H](NC(=O)c2c(Cl)cccc2Cl)C(=O)O)cc1 [Example 26, N-(2,6-Dichlorobenzoyl)-4-[2-(methoxycarbonylamino)phenyl]-L-phenylalanine] | 300 to 1000
3 | CN(C)c1ccccc1-c1ccc(C[C@H](NC(=O)c2c(Cl)cccc2Cl)C(=O)O)cc1 [Example 27, N-(2,6-Dichlorobenzoyl)-4-[2-(N,N-dimethylamino)phenyl]-L-phenylalanine] | < 300
4 | NC(=O)Nc1ccccc1-c1ccc(C[C@H](NC(=O)c2c(Cl)cccc2Cl)C(=O)O)cc1 [Example 28, N-(2,6-Dichlorobenzoyl)-4-(2-ureidophenyl)-L-phenylalanine] | 300 to 1000
5 | COc1cccc(N(C)C)c1-c1ccc(C[C@H](NC(=O)c2c(Cl)cccc2Cl)C(=O)O)cc1 [Example 29, N-(2,6-Dichlorobenzoyl)-4-[2-(N,N-dimethylamino)-6-methoxyphenyl]-L-phenylalanine] | 1000 to 5000
6 | O=C(N[C@@H](Cc1ccc(-c2ccccc2O)cc1)C(=O)O)c1c(Cl)cccc1Cl [Example 30, N-(2,6-Dichlorobenzoyl)-4-(2-hydroxyphenyl)-L-phenylalanine] | 300 to 1000
7 | COc1cccc(O)c1-c1ccc(C[C@H](NC(=O)c2c(Cl)cccc2Cl)C(=O)O)cc1 [Example 31, N-(2,6-Dichlorobenzoyl)-4-(2-hydroxy-6-methoxyphenyl)-L-phenylalanine] | < 300
8 | O=C(O)COc1ccccc1-c1ccc(C[C@H](NC(=O)c2c(Cl)cccc2Cl)C(=O)O)cc1 [Example 32, N-(2,6-Dichlorobenzoyl)-4-[2-(carboxymethoxy)-phenyl]-L-phenylalanine] | < 300
9 | COC(=O)[C@H](Cc1ccc(-c2ccccc2OCC#N)cc1)NC(=O)c1c(Cl)cccc1Cl [Example 33, N-(2,6-Dichlorobenzoyl)-4-[2-(cyanomethoxy)phenyl]-L-phenylalanine methyl ester] | 300 to 1000
10 | CCCCOc1ccccc1-c1ccc(C[C@H](NC(=O)c2c(Cl)cccc2Cl)C(=O)O)cc1 [Example 34] | 1000 to 5000
11 | CC(C)COc1ccccc1-c1ccc(C[C@H](NC(=O)c2c(Cl)cccc2Cl)C(=O)O)cc1 [Example 35] | 1000 to 5000
12 | O=C(O)CCCOc1ccccc1-c1ccc(C[C@H](NC(=O)c2c(Cl)cccc2Cl)C(=O)O)cc1 [Example 36] | < 300
13 | O=C(N[C@@H](Cc1ccc(-c2ccccc2OCCCO)cc1)C(=O)O)c1c(Cl)cccc1Cl [Example 37] | 300 to 1000
14 | O=C(N[C@@H](Cc1ccc(-c2ccccc2OCc2ccccn2)cc1)C(=O)O)c1c(Cl)cccc1Cl [Example 38] | 300 to 1000
15 | O=C(N[C@@H](Cc1ccc(-c2ccccc2OCc2ccncc2)cc1)C(=O)O)c1c(Cl)cccc1Cl [Example 39] | 300 to 1000
16 | O=C(N[C@@H](Cc1ccc(-c2ccccc2OCc2cccnc2)cc1)C(=O)O)c1c(Cl)cccc1Cl [Example 40] | 300 to 1000

Row | SMILES | IC50 [nM]
17 | Cc1noc(C)c1COc1ccccc1-c1ccc(C[C@H](NC(=O)c2c(Cl)cccc2Cl)C(=O)O)cc1 [Example 41] | 1000 to 5000
18 | Cc1ncc(COc2ccccc2-c2ccc(C[C@H](NC(=O)c3c(Cl)cccc3Cl)C(=O)O)cc2)s1 [Example 42] | 300 to 1000
19 | CN1CCCC1CCOc1ccccc1-c1ccc(C[C@H](NC(=O)c2c(Cl)cccc2Cl)C(=O)O)cc1 (stereo partly shown) [Example 43] | 1000 to 5000
20 | CN1CCCC(COc2ccccc2-c2ccc(C[C@H](NC(=O)c3c(Cl)cccc3Cl)C(=O)O)cc2)C1 (stereo partly shown) [Example 44] | 300 to 1000
21 | O=Cc1ccccc1-c1ccc(C[C@H](NC(=O)c2c(Cl)cccc2Cl)C(=O)O)cc1 [Example 45, N-(2,6-Dichlorobenzoyl)-4-(2-formylphenyl)-L-phenylalanine] | < 300
22 | O=C(N[C@@H](Cc1ccc(-c2ccccc2CNc2ccccc2)cc1)C(=O)O)c1c(Cl)cccc1Cl [Example 46, N-(2,6-Dichlorobenzoyl)-4-[2-[(phenylamino)methyl]phenyl]-L-phenylalanine] | < 300
23 | NCc1ccccc1-c1ccc(C[C@H](NC(=O)c2c(Cl)cccc2Cl)C(=O)O)cc1 [Example 47, N-(2,6-Dichlorobenzoyl)-4-[2-(aminomethyl)phenyl]-L-phenylalanine] | < 300
24 | O=C(N[C@@H](Cc1ccc(-c2ccccc2CNCc2ccccc2)cc1)C(=O)O)c1c(Cl)cccc1Cl [Example 48, N-(2,6-Dichlorobenzoyl)-4-[2-[(benzylamino)methyl]phenyl]-L-phenylalanine] | 1000 to 5000
25 | O=C(N[C@@H](Cc1ccc(-c2ccccc2CO)cc1)C(=O)O)c1c(Cl)cccc1Cl [Example 50, N-(2,6-Dichlorobenzoyl)-4-[2-(hydroxymethyl)phenyl]-L-phenylalanine] | < 300
26 | COCc1ccccc1-c1ccc(C[C@H](NC(=O)c2c(Cl)cccc2Cl)C(=O)O)cc1 [Example 51, N-(2,6-Dichlorobenzoyl)-4-[2-(methoxymethyl)phenyl]-L-phenylalanine] | 300 to 1000
27 | O=C(O)c1ccccc1-c1ccc(C[C@H](NC(=O)c2c(Cl)cccc2Cl)C(=O)O)cc1 [Example 52, N-(2,6-Dichlorobenzoyl)-4-(2-carboxyphenyl)-L-phenylalanine] | > 5000
28 | O=C(NCc1ccccc1)c1ccccc1-c1ccc(C[C@H](NC(=O)c2c(Cl)cccc2Cl)C(=O)O)cc1 [Example 53, N-(2,6-Dichlorobenzoyl)-4-[2-(N-benzylcarbamoyl)phenyl]-L-phenylalanine] | 1000 to 5000
29 | CNC(=O)c1ccccc1-c1ccc(C[C@H](NC(=O)c2c(Cl)cccc2Cl)C(=O)O)cc1 [Example 54, N-(2,6-Dichlorobenzoyl)-4-[2-(N-methylcarbamoyl)phenyl]-L-phenylalanine] | 300 to 1000
30 | CCCCNC(=O)c1ccccc1-c1ccc(C[C@H](NC(=O)c2c(Cl)cccc2Cl)C(=O)O)cc1 [Example 55, N-(2,6-Dichlorobenzoyl)-4-[2-(N-n-butylcarbamoyl)phenyl]-L-phenylalanine] | 1000 to 5000
31 | O=C(NCCO)c1ccccc1-c1ccc(C[C@H](NC(=O)c2c(Cl)cccc2Cl)C(=O)O)cc1 [Example 56, N-(2,6-Dichlorobenzoyl)-4-[2-[N-(2-hydroxyethyl)carbamoyl]phenyl]-L-phenylalanine] | 300 to 1000
